Legend:
[1] = target: Ribosomal protein S6 kinase alpha-4 (Homo sapiens) (UniProt O75676); conditions: Compound concentration 1000.0 nM
[2] = test system: Leucine-rich repeat serine/threonine-protein kinase 2 (Homo sapiens), Q5S007 [G2019S]; conditions: Compound concentration 1000.0 nM
[3] = target: Serine/threonine-protein kinase SIK3 (Homo sapiens) (UniProt Q9Y2K2); conditions: Compound concentration 1000.0 nM
[4] = test system: Tyrosine-protein kinase ABL1 (Homo sapiens), P00519 [Y253F]; conditions: Compound concentration 1000.0 nM
[5] = target: Alpha-2C adrenergic receptor (Homo sapiens) (UniProt P18825); conditions: Compound concentration 10.0 uM
[6] = target: Adenosine receptor A3 (Homo sapiens) (UniProt P0DMS8); assay: A3 (h) Eurofins-Cerep binding assay; set-up: ligand concentration 0.15 nM; conditions: filed as agonist, Compound concentration 10.0 uM
[7] = target: Phosphorylase b kinase regulatory subunit alpha, liver isoform (Homo sapiens) (UniProt P46019); conditions: Compound concentration 1000.0 nM
Phosphorylase b kinase regulatory subunit alpha, liver isoform (Homo sapiens), sequence (P46019 whole entry, canonical isoform): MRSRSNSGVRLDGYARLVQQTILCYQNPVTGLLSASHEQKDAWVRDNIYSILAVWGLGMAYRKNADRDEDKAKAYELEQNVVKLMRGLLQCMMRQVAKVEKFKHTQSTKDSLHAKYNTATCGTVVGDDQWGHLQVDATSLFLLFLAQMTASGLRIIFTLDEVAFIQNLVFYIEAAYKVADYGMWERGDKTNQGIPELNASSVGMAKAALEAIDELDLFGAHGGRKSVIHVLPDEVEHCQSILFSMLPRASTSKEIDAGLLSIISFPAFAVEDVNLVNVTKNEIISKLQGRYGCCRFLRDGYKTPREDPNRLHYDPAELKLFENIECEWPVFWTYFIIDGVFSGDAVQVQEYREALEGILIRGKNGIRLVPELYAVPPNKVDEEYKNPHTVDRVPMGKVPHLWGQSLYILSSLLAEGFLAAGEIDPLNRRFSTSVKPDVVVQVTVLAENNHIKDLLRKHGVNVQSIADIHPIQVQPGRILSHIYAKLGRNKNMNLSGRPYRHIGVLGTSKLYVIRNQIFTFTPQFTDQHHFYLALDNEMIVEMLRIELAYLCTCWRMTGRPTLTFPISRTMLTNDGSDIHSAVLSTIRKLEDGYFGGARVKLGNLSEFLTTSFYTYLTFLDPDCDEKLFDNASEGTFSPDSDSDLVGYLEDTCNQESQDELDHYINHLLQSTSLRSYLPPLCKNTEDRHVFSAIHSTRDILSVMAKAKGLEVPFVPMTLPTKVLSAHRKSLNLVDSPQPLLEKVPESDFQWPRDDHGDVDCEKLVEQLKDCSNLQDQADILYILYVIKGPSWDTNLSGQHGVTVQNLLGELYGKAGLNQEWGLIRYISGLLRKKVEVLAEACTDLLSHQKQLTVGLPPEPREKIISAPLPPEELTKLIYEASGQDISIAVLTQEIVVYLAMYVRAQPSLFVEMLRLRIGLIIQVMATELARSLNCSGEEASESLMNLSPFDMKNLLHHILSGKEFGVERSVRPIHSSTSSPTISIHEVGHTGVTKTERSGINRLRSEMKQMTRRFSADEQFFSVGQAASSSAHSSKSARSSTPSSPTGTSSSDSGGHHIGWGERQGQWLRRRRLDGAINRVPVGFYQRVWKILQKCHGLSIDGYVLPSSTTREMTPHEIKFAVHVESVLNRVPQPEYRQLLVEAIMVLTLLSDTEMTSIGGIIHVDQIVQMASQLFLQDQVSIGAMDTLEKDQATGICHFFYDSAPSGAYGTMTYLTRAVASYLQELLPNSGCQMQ

[8] = target: Phosphatidylinositol 4,5-bisphosphate 3-kinase catalytic subunit delta isoform (Homo sapiens) (UniProt O00329); conditions: Compound concentration 1000.0 nM
[9] = target: Cyclin-dependent kinase-like 5 (Homo sapiens) (UniProt O76039); conditions: Compound concentration 1000.0 nM
[10] = target: Urotensin-2 receptor (Homo sapiens) (UniProt Q9UKP6); assay: UT (h) Eurofins-Cerep binding assay; set-up: ligand concentration 0.1 nM; conditions: filed as agonist, Compound concentration 10.0 uM
[11] = target: Mitogen-activated protein kinase kinase kinase 4 (Homo sapiens) (UniProt Q9Y6R4); conditions: Compound concentration 1000.0 nM
[12] = test system: Epidermal growth factor receptor (Homo sapiens), P00533 [G719C]; conditions: Compound concentration 1000.0 nM
[13] = target: T1, Alpha-1B adrenergic receptor (Homo sapiens) (UniProt P35368); conditions: Compound concentration 10.0 uM
T1 sequence (whole entry): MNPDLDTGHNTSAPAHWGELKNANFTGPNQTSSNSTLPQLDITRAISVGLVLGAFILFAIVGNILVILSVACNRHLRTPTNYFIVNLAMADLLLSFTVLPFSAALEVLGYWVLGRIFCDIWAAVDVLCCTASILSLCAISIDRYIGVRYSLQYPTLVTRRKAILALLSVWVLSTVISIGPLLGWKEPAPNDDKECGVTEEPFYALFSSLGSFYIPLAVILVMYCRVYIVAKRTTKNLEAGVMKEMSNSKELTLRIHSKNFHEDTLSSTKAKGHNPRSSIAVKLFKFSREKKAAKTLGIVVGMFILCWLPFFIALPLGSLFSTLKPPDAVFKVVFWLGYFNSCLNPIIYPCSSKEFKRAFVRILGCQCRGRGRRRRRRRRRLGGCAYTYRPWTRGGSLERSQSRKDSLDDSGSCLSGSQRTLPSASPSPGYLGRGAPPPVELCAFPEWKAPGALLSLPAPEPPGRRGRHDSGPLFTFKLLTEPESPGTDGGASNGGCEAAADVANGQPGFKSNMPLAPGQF

[14] = target: Peroxisome proliferator-activated receptor gamma (Homo sapiens) (UniProt P37231); assay: PPARgamma (h) Eurofins-Cerep binding assay; set-up: ligand concentration 5 nM; conditions: filed as agonist, Compound concentration 10.0 uM
[15] = target: SRSF protein kinase 3 (Homo sapiens) (UniProt Q9UPE1); conditions: Compound concentration 1000.0 nM
[16] = target: Sodium-dependent dopamine transporter (Homo sapiens) (UniProt Q01959); assay: dopamine transporter (h) Eurofins-Cerep binding assay; set-up: ligand concentration 4 nM; conditions: filed as antagonist, Compound concentration 10.0 uM
Sodium-dependent dopamine transporter (Homo sapiens), sequence (Q01959 whole entry): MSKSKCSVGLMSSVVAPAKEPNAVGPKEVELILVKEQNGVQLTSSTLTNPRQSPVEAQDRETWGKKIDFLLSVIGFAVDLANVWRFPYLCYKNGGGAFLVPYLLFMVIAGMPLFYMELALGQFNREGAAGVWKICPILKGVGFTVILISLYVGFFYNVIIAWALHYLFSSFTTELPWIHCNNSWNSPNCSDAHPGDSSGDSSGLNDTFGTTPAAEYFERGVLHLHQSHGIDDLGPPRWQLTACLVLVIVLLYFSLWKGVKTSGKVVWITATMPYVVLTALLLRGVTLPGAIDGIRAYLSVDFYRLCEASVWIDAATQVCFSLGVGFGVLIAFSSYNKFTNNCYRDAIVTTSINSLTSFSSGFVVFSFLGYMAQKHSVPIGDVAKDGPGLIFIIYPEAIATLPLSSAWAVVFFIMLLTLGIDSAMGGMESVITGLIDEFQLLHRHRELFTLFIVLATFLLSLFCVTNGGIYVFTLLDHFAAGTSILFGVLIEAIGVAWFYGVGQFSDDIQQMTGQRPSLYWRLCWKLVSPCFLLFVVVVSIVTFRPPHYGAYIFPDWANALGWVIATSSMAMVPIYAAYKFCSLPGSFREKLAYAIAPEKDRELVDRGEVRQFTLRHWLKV

[17] = target: Serine/threonine-protein kinase DCLK2 (Homo sapiens) (UniProt Q8N568); conditions: Compound concentration 1000.0 nM
[18] = target: Serine/threonine-protein kinase DCLK1 (Homo sapiens) (UniProt O15075); conditions: Compound concentration 1000.0 nM
[19] = target: Tyrosine-protein kinase JAK3 (Homo sapiens) (UniProt P52333); conditions: Compound concentration 1000.0 nM
Tyrosine-protein kinase JAK3 (Homo sapiens), sequence (P52333 whole entry): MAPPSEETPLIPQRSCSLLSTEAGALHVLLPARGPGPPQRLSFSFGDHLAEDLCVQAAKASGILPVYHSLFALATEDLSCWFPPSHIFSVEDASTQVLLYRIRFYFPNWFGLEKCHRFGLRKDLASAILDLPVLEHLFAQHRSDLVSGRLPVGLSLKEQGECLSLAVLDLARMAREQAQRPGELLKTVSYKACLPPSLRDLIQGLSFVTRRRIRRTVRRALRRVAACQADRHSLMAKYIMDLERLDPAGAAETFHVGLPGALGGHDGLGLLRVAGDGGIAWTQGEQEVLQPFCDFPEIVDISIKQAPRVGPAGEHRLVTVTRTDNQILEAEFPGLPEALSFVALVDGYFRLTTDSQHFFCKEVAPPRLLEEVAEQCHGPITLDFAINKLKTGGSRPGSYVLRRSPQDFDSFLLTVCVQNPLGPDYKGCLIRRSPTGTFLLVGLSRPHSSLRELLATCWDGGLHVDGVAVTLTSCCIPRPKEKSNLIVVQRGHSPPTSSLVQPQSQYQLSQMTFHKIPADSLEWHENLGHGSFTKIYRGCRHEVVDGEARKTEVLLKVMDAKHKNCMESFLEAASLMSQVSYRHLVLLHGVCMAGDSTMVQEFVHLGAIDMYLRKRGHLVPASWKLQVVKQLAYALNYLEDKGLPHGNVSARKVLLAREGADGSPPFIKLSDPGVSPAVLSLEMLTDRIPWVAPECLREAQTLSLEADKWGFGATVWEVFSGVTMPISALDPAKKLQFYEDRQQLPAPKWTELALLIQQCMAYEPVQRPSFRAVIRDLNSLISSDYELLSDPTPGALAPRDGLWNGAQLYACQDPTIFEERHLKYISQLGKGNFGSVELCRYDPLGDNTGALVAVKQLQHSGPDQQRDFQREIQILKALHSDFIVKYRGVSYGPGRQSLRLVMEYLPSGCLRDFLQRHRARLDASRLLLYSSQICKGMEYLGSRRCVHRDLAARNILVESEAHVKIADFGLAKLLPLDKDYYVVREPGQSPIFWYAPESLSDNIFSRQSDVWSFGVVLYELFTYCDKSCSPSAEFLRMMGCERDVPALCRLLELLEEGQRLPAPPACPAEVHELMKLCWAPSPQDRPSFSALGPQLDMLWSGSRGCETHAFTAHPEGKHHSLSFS

[20] = target: 5-hydroxytryptamine receptor 2A (Homo sapiens) (UniProt P28223); assay: 5-HT2A (h) Eurofins-Cerep binding assay; set-up: ligand concentration 0.5 nM; conditions: filed as antagonist, Compound concentration 10.0 uM
[21] = target: Casein kinase I isoform epsilon (Homo sapiens) (UniProt P49674); conditions: Compound concentration 1000.0 nM
[22] = target: Serine/threonine-protein kinase PLK2 (Homo sapiens) (UniProt Q9NYY3); conditions: Compound concentration 1000.0 nM
Serine/threonine-protein kinase PLK2 (Homo sapiens), sequence (Q9NYY3 whole entry, looked up): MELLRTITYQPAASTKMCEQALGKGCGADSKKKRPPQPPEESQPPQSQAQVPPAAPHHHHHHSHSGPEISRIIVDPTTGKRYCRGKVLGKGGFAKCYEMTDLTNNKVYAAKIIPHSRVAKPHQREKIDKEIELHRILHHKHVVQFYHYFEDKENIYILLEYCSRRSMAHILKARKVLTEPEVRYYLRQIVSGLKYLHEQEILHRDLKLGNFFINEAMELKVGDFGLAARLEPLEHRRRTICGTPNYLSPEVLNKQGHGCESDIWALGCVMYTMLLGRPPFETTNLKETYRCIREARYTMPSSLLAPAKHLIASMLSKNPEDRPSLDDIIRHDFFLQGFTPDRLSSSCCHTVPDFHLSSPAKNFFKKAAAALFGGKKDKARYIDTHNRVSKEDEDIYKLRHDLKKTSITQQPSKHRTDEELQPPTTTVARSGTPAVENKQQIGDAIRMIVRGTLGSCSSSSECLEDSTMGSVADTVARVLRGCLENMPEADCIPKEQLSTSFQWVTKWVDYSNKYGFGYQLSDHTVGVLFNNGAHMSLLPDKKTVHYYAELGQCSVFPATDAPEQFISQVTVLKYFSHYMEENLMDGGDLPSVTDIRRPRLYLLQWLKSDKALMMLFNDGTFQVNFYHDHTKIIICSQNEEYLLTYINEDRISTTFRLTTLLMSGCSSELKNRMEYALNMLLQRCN

[23] = target: Dual specificity tyrosine-phosphorylation-regulated kinase 1B (Homo sapiens) (UniProt Q9Y463); conditions: Compound concentration 1000.0 nM
[24] = target: Serine/threonine-protein kinase PRP4 homolog (Homo sapiens) (UniProt Q13523); conditions: Compound concentration 1000.0 nM
[25] = test system: Receptor-type tyrosine-protein kinase FLT3 (Homo sapiens), P36888 [N841I]; conditions: Compound concentration 1000.0 nM
[26] = target: Transient receptor potential cation channel subfamily M member 6 (Homo sapiens) (UniProt Q9BX84); conditions: Compound concentration 1000.0 nM
[27] = target: Activin receptor type-2B (Homo sapiens) (UniProt Q13705); conditions: Compound concentration 1000.0 nM
[28] = target: Mitogen-activated protein kinase 7 (Homo sapiens) (UniProt Q13164); conditions: Compound concentration 1000.0 nM
[29] = target: AP2-associated protein kinase 1 (Homo sapiens) (UniProt Q2M2I8); conditions: Compound concentration 1000.0 nM
[30] = target: Vascular endothelial growth factor receptor 2 (Homo sapiens) (UniProt P35968); conditions: Compound concentration 1000.0 nM
[31] = target: Mitogen-activated protein kinase kinase kinase 3 (Homo sapiens) (UniProt Q99759); conditions: Compound concentration 1000.0 nM
Mitogen-activated protein kinase kinase kinase 3 (Homo sapiens), sequence (Q99759 whole entry): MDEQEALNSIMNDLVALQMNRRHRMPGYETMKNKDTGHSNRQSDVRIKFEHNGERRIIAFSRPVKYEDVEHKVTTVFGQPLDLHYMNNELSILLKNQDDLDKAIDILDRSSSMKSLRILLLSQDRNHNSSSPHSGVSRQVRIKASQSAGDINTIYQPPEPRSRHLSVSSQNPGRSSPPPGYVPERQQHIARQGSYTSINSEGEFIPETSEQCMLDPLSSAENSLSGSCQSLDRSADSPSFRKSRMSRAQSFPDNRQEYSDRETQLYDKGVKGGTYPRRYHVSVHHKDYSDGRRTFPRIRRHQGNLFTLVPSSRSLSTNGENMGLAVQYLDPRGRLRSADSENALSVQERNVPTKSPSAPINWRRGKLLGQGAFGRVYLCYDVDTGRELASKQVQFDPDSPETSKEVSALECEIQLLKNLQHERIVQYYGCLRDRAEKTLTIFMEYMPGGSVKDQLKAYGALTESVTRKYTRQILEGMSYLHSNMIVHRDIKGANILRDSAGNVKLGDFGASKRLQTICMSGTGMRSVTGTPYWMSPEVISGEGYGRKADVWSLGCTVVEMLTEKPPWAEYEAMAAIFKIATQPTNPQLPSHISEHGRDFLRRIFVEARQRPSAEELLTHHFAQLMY

[32] = target: Myotonin-protein kinase (Homo sapiens) (UniProt Q09013); conditions: Compound concentration 1000.0 nM
[33] = target: Mitogen-activated protein kinase 15 (Homo sapiens) (UniProt Q8TD08); conditions: Compound concentration 1000.0 nM
Mitogen-activated protein kinase 15 (Homo sapiens), sequence (Q8TD08 whole entry): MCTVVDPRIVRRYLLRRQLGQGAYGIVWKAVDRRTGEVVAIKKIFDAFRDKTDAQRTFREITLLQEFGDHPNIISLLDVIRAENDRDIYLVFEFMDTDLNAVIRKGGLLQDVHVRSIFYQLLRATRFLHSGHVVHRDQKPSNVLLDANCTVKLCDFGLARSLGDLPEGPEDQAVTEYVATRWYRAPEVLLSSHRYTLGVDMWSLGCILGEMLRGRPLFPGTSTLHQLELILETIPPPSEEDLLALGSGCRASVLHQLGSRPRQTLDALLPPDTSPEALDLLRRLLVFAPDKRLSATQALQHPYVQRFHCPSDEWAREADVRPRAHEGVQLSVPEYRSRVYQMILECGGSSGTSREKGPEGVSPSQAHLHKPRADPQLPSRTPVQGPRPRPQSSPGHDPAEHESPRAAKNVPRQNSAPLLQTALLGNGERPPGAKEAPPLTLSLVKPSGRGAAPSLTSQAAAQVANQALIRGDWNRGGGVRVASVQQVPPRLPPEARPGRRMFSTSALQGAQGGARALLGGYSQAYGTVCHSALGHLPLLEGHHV

[34] = target: Ephrin type-A receptor 3 (Homo sapiens) (UniProt P29320); conditions: Compound concentration 1000.0 nM
[35] = target: 5-hydroxytryptamine receptor 4 (Homo sapiens) (UniProt Q13639); assay: 5-HT4 e (h) Eurofins-Cerep binding assay; set-up: ligand concentration 0.3 nM; conditions: filed as antagonist, Compound concentration 10.0 uM
[36] = target: Casein kinase II subunit alpha' (Homo sapiens) (UniProt P19784); conditions: Compound concentration 1000.0 nM
[37] = target: Proto-oncogene tyrosine-protein kinase ROS (Homo sapiens) (UniProt P08922); conditions: Compound concentration 1000.0 nM
[38] = target: Serine/threonine-protein kinase ULK3 (Homo sapiens) (UniProt Q6PHR2); conditions: Compound concentration 1000.0 nM

In the case of `COc1ccc2c(c1)O[C@H](c1ccc(OC)c(OC)c1)C[C@@H]2NC(=O)C1(c2ccc3c(c2)OC(F)(F)O3)CC1` [A-1596584], the residual activity [1] is reported as 100%, the residual activity [2] is reported as 100% and the residual activity [3] is reported as 95%. The residual activity [4] was 93%, the inhibition [5] was 10.1% and the % Inhibition of Control Specific Binding (Mean n=2) [6] was 67.7%. The residual activity [7] was 93%, the residual activity [8] was 85% and the residual activity [9] was 100%. For the same molecule, the % Inhibition of Control Specific Binding (Mean n=2) [10] was 15.7%, the residual activity [11] was 98% and the residual activity [12] was 100%. The inhibition [13] was 5.97%, the % Inhibition of Control Specific Binding (Mean n=2) [14] was 13.7% and the residual activity [15] was 97%. It also gave a % Inhibition of Control Specific Binding (Mean n=2) [16] of 25.8%, a residual activity [17] of 98% and a residual activity [18] of 100%. It also gave a residual activity [19] of 100%, a % Inhibition of Control Specific Binding (Mean n=2) [20] of -3.7% and a residual activity [21] of 100%. For the same molecule, the residual activity [22] was 100%, the residual activity [23] was 91% and the residual activity [24] was 56%. The residual activity [25] was 100%, the residual activity [26] was 84% and the residual activity [27] was 100%. It also gave a residual activity [28] of 100%, a residual activity [29] of 100% and a residual activity [30] of 88%. For the same molecule, the residual activity [31] was 87%, the residual activity [32] was 94% and the residual activity [33] was 100%. It also gave a residual activity [34] of 100%, a % Inhibition of Control Specific Binding (Mean n=2) [35] of 5.3% and a residual activity [36] of 100%. It also gave a residual activity [37] of 73% and a residual activity [38] of 90%.

`COc1ccc2c(c1)O[C@@H](c1ccc(OC)c(OC)c1)C[C@H]2NC(=O)C1(c2ccc3c(c2)OC(F)(F)O3)CC1` [A-1596586] was tested, and the residual activity [1] was 81%, the residual activity [2] was 90% and the residual activity [3] was 82%. It also gave a residual activity [4] of 78%, an inhibition [5] of 15.8% and a % Inhibition of Control Specific Binding (Mean n=2) [6] of 63.9%. For the same molecule, the residual activity [7] was 82%, the residual activity [8] was 97% and the residual activity [9] was 85%. For the same molecule, the % Inhibition of Control Specific Binding (Mean n=2) [10] was 29.3%, the residual activity [11] was 95% and the residual activity [12] was 96%. The inhibition [13] was 49%, the % Inhibition of Control Specific Binding (Mean n=2) [14] was -5.5% and the residual activity [15] was 100%. The % Inhibition of Control Specific Binding (Mean n=2) [16] was 6.1%, the residual activity [17] was 86% and the residual activity [18] was 82%. It also gave a residual activity [19] of 88%, a % Inhibition of Control Specific Binding (Mean n=2) [20] of -7.4% and a residual activity [21] of 100%. It also gave a residual activity [22] of 81%, a residual activity [23] of 100% and a residual activity [24] of 83%. It also gave a residual activity [25] of 100%, a residual activity [26] of 82% and a residual activity [27] of 96%. It also gave a residual activity [28] of 100%, a residual activity [29] of 91% and a residual activity [30] of 80%. It also gave a residual activity [31] of 84%, a residual activity [32] of 93% and a residual activity [33] of 100%. It also gave a residual activity [34] of 91%, a % Inhibition of Control Specific Binding (Mean n=2) [35] of 10.2% and a residual activity [36] of 87%. For the same molecule, the residual activity [37] was 97% and the residual activity [38] was 85%.
